In patent US12458666B2 (DOUBLE BOND PHARMACEUTICALS AB, priority 2019, dated 2025):
Read-outs that look alike come from different tables or passages of the source.

Legend:
[1] = cited from earlier work; for Ferritin level after treatment: HF, ejection fraction <40% and anaemia
[2] = for median ferritin level: thirteen patients who took study medication according to protocol for 12 weeks, baseline 42 (32-57.5); for Hemoglobin / hsCRP / Hepcidin / Transferrin / Iron / TSAT (transferrin saturation) / Ferritin: intention to treat, 100 mg tablet orally twice a day; for Hemoglobin: 20 patients, baseline 144; for hsCRP: baseline 2.0; for Hepcidin: baseline 2.5; for Transferrin: baseline 2.6; for Iron: baseline 13.5; for TSAT (transferrin saturation): baseline 20; for Ferritin: baseline 47
Experimental: Most of these patients were screened during the year 2018 until January 2019 were the target population. […] These 42 patients defined by inclusion and exclusion criteria for participation were called by phone and informed about the study. After having given oral and written consent to participate blood sampling was performed to confirm or reject the presence of non-anemic ID.
• All patients with a case record diagnosis of HF, both those with preserved EF or reduced EF were potentially eligible, provided there were no contraindications to participate. • The diagnosis of HF was on symptoms and an ECHO verified reduction of cardiac function, systolic and/or diastolic dysfunction. Those with an EF=<40% were classified as HFrEF and those with EF>40% as preserved HF.
(§1) The study was planned as an open pilot study without placebo control. The study was performed at the research unit at the department of Medicine-Geriatric, a special heart failure case record with laboratory data was filed before the start of the study, after six weeks and after 3 months (±2 weeks) at the end of study. Adverse reactions and side effects were registered at each visit.
Inofer® is an oral product against ID in a form of film-coated tablets. […] The patients are given one tablet ( )twice a day during a period of at least three months.
1 tablet was taken in the morning and 1 tablet was taken in the evening at bedtime for at least 3 months. The tablet was not taken with food.
Blood sampling was performed according to local and current guidelines. Blood was centrifuged, divided into aliquots and stored at minus 80° C. in a safe deposit box, Biobank Västerbotten, until analysis. Hemoglobin, CRP, ferritin, serum iron, TSAT and hepcidin were analyzed before start, at 6 weeks and 3 months after treatment.
Continuous variables are presented as means ±standard deviation for normally distributed values, median and interquartile range for skewed variables, and numbers and percentages for categorical variables. Due to skewed variables for ferritin and TSAT non-parametric test was used for related or independent data. Data were analysed using IBM SPSS Software version 24 (IBM Corp. Chicago, Illinois, USA).

[3] = Experimental: as §1
[4] = irrespective if iron was given orally or intravenously; cited from earlier work
[5] = long-term intravenous therapy; cited from earlier work
[6] = cited from earlier work
[7] = after oral iron succinate treatment
[8] = percentage of patients exhibiting the symptom in the study

Compound: O=S(=O)([O-])[O-].[Fe+2] [ferrous sulphate]
- increase of TSAT, oral vs. intravenous administration of iron ([1]; oral 200 mg 3 times a day compared with intravenous iron sucrose): less
- Ferritin level after treatment ([1]; oral 200 mg 3 times a day, from 115±141): 218 ± 189 ng/mL

Compound: O=C([O-])CCC(=O)[O-].[Fe+2] [iron succinate, ferrous succinate]
- increase of ferritin levels in patients with HFpEF compared with HFrEF [2, 7]: about the same magnitude
- uptake (levels) in females compared with males [2, 7]: increased rather equally
- median ferritin level ([2]; at 6 weeks): 83 (61-110.5) μg/L
- median ferritin level ([2]; at 12 weeks): 87 µg/L
- Hemoglobin ([2]; median at 6 weeks): 138 g/L
- hsCRP ([2]; median at 6 weeks): 2.0 mg/L
- Hepcidin ([2]; median at 6 weeks, p=0.006): 4.8 nmol/L
- Transferrin ([2]; median at 6 weeks, p=0.038): 2.4 g/L
- Iron ([2]; median at 6 weeks): 16.5 µmol/L
- TSAT (transferrin saturation) ([2]; median at 6 weeks, p=0.046): 27%
- Ferritin ([2]; median at 6 weeks, p=0.009): 78 µg/L
- Hemoglobin ([2]; median at 12 weeks): 142 g/L
- hsCRP ([2]; median at 12 weeks): 1.9 mg/L
- Hepcidin ([2]; median at 12 weeks, p=0.026): 4.2 nmol/L
- Transferrin ([2]; median at 12 weeks, p=0.009): 2.3 g/L
- Iron ([2]; median at 12 weeks): 16.0 µmol/L
- TSAT (transferrin saturation) ([2]; median at 12 weeks, p=0.043): 25%
- Ferritin ([2]; median at 12 weeks, p=0.001): 85 µg/L
- TSAT at EOS ([2]; one patient who stopped study medication after 3.5 weeks, baseline 16): 21%
- ferritin level at EOS ([2]; one patient who stopped study medication after 3.5 weeks, baseline 198): 237 µg/L
- increase of ferritin level from baseline to EOS ([2]; one patient who took only one tablet per day for 2.5 weeks): 38%
- increase of ferritin level from baseline to EOS ([2]; one patient who took only one tablet per day for 6 weeks): 174%
- increase of ferritin level from baseline to EOS ([2]; one patient who took only one tablet per day for 7.5 weeks): 95%
- patients who stopped study medication because of vomiting or diarrhea ([3]; of 20 patients): Three
- patients who stopped study medication before EOS ([3]; of 20 patients): four
- Breathlessness, % [3, 8]: 90%
- Constipation, % [3, 8]: 20%
- Diarrhea, % [3, 8]: 5%
- Stomic pain, % [3, 8]: 10%
- Tiredness, % [3, 8]: 80%
- uptake compared to other iron compounds [4]: most favourable uptake

Compound: ferric carboxymaltose
- symptomatic and morbidity effects in patients with HF [5]: beneficial symptomatic and morbidity effects

Compound: iron polysaccharide
- uptake in iron deposits ([6]; high dose oral, 16 weeks, HFrEF): marginal uptake
- exercise capacity over 16 weeks ([6]; high dose oral, HFrEF): did not improve exercise capacity
- TSAT increase ([6]; oral 150 mg twice daily for 16 weeks, HFrEF (<40%) and iron deficiency, CI −3 to 7, placebo 0, p=0.003): 2%
- Ferritin increase ([6]; oral 150 mg twice daily for 16 weeks, HFrEF (<40%) and iron deficiency, CI −8 to 38, placebo 1): 18 ng/mL

Compound: iron sucrose
- Ferritin level after treatment ([1]; intravenous 200 mg per week for 5 weeks, from 167±149): 293 ± 270 ng/mL
